Test results as given in patent US10961205B2, “1,2,4-oxadiazole derivatives as immunomodulators” (Aurigene Discovery Technologies Limited, priority 2013, dated 2021).

Test system: PD-L1
Assay: Rescue of mouse splenocyte proliferation in presence of recombinant PD-L1 (CFSE proliferation assay)
Assay type: cell-based
Conditions: anti-CD3/CD28 stimulated mouse splenocytes in presence of ligand (PDL-1), 72 h, stimulated splenocyte proliferation normalised as 100%
Procedure: Rescue of Mouse Splenocyte Proliferation in Presence of Recombinant PD-L1/PD-L2
Recombinant mouse PD-L1 (rm-PDL-1, cat no: 1019-B7-100 & rh-PDL-1, cat no: 156-B7-100, R&D Systems) were used as the source of PD-L1.
Mouse splenocytes harvested from 6-8 weeks old C57 BL6 mice; RPMI 1640 (GIBCO, Cat #11875); DMEM with high glucose (GIBCO, Cat #D6429); Fetal Bovine Serum [Hyclone, Cat #SH30071.03]; Penicillin (10000 unit/mL)-Streptomycin(10,000 μg/mL) Liquid (GIBCO, Cat #15140-122); MEM Sodium Pyruvate solution 100 mM (100×), Liquid (GIBCO, Cat #11360); Nonessential amino acid (GIBCO, Cat #11140); L-Glutamine (GIBCO, Cat #25030); Anti-CD3 antibody (eBiosciences—16-0032); Anti-CD28 antibody (eBiosciences—16-0281); ACK lysis buffer (1 mL) (GIBCO, Cat #-A10492); Histopaque (density-1.083 gm/mL) (SIGMA 10831); Trypan blue solution (SIGMA-T8154); 2 mL Norm Ject Luer Lock syringe-(Sigma 2014-12); 40 μm nylon cell strainer (BD FALCON 35230); Hemacytometer (Bright line-SIGMA Z359629); FACS Buffer (PBS/0.1% BSA): Phosphate Buffered Saline (PBS) pH 7.2 (HiMedia TS1006) with 0.1% Bovine Serum Albumin (BSA) (SIGMA A7050) and sodium azide (SIGMA 08591); 5 mM stock solution of CFSE: CFSE stock solution was prepared by diluting lyophilized CFSE with 180 μL of Dimethyl sulfoxide (DMSO C2H6SO, SIGMA-D-5879) and aliquoted in to tubes for further use. Working concentrations were titrated from 10 μM to 1 μM. (eBioscience—650850-85); 0.05% Trypsin and 0.02% EDTA (SIGMA 59417C); 96-well format ELISA plates (Corning CLS3390); BD FACS caliber (E6016); Recombinant mouse B7-H1/PDL1 Fc Chimera, (rm-PD-L1 cat no: 1019-B7-100).
Splenocytes harvested in a 50 mL falcon tube by mashing mouse spleen in a 40 μm cell strainer were further treated with 1 mL ACK lysis buffer for 5 min at room temperature. After washing with 9 mL of RPMI complete media, cells were re-suspended in 3 mL of 1×PBS in a 15 mL tube. 3 mL of Histopaque was added carefully to the bottom of the tube without disturbing overlaying splenocyte suspension. After centrifuging at 800×g for 20 min at room temperature, the opaque layer of splenocytes was collected carefully without disturbing/mixing the layers. Splenocytes were washed twice with cold 1×PBS followed by total cell counting using Trypan Blue exclusion method and used further for cell based assays.
Splenocytes were cultured in RPMI complete media (RPMI+10% fetal bovine serum+1 mM sodium pyruvate+10,000 units/mL penicillin and 10,000 μg/mL streptomycin) and maintained in a CO2 incubator with 5% CO2 at 37° C.
CFSE is a dye that passively diffuses into cells and binds to intracellular proteins. 1×10^6 cells/mL of harvested splenocytes were treated with 5 μM of CFSE in pre-warmed 1×PBS/0.1% BSA solution for 10 min at 37° C. Excess CFSE was quenched using 5 volumes of ice-cold culture media to the cells and incubated on ice for 5 min. CFSE labelled splenocytes were further given three washes with ice cold complete RPMI media. CFSE labelled 1×10^5 splenocytes added to wells containing either MDA-MB231 cells (1×10^5 cells cultured in high glucose DMEM medium) or recombinant […] PDL-1 (100 ng/mL) and test compounds. Splenocytes were stimulated with anti-mouse CD3 and anti-mouse CD28 antibody (1 μg/mL each), and the culture was further incubated for 72 h at 37° C. with 5% CO2. Cells were harvested and washed thrice with ice cold FACS buffer and % proliferation was analyzed by flow cytometry with 488 nm excitation and 521 nm emission filters.
Percent splenocyte proliferation was analyzed using cell quest FACS program and percent rescue of splenocyte proliferation by compound was estimated after deduction of % background proliferation value and normalising to % stimulated splenocyte proliferation (positive control) as 100%.
Stimulated splenocytes: Splenocytes+anti-CD3/CD28 stimulation
Background proliferation: Splenocytes+anti-CD3/CD28+PD-L1
Compound proliferation: Splenocytes+anti-CD3/CD28+PD-L1+Compound […]

Structure (SMILES): NC(=O)C[C@H](N)c1nc([C@@H](N)CO)no1 [Compound 1]
- Percent rescue of splenocyte proliferation @ 100 nM compound concentration: 93%

Structure (SMILES): CC(O)[C@@H](NC(=O)N[C@H](CC(N)=O)c1nc([C@@H](N)CO)no1)C(=O)O (some centres unmarked) [Compound 18]
- Percent rescue of splenocyte proliferation @ 100 nM compound concentration: 64%

Structure (SMILES): CC(O)[C@H](NC(=O)N[C@@H](CC(N)=O)c1nc([C@@H](N)CO)no1)C(N)=O (some centres unmarked) [Compound 7]
- Percent rescue of splenocyte proliferation @ 100 nM compound concentration: 55%

Structure (SMILES): CC(O)[C@H](NC(=O)N[C@@H](CCC(N)=O)c1nc([C@@H](N)C(C)O)no1)C(=O)O (some centres unmarked) [Compound 23]
- Percent rescue of splenocyte proliferation @ 100 nM compound concentration: 74%

Structure (SMILES): CCCC(=O)N[C@@H](CO)c1noc([C@H](CC(N)=O)NC(=O)N[C@H](C(=O)O)C(C)O)n1 (some centres unmarked) [Compound 9]
- Percent rescue of splenocyte proliferation @ 100 nM compound concentration: 34%

Structure (SMILES): CC(O)[C@H](NC(=O)N[C@H](CC(N)=O)c1nc([C@H](N)CO)no1)C(=O)O (some centres unmarked) [Compound 17]
- Percent rescue of splenocyte proliferation @ 100 nM compound concentration: 55%

Structure (SMILES): N[C@@H](CO)c1noc([C@H](CCC(=O)O)NC(=O)N[C@@H](CO)C(=O)O)n1 [Compound 8]
- Percent rescue of splenocyte proliferation @ 100 nM compound concentration: 67%

Structure (SMILES): COC[C@H](N)c1noc([C@H](CC(N)=O)NC(=O)N[C@H](C(=O)O)C(C)O)n1 (some centres unmarked) [Compound 10]
- Percent rescue of splenocyte proliferation @ 100 nM compound concentration: 49%

Structure (SMILES): COC(=O)[C@@H](NC(=O)N[C@@H](CC(N)=O)c1nc([C@@H](N)CO)no1)C(C)O (some centres unmarked) [Compound 6]
- Percent rescue of splenocyte proliferation @ 100 nM compound concentration: 84%

Structure (SMILES): CC(O)[C@@H](N)c1noc([C@@H](CC(N)=O)NC(=O)N[C@H](CO)C(=O)O)n1 (some centres unmarked) [Compound 5]
- Percent rescue of splenocyte proliferation @ 100 nM compound concentration: 67.6%

Structure (SMILES): N[C@@H](CO)c1noc([C@H](CC(=O)O)NC(=O)N[C@@H](CO)C(=O)O)n1 [Compound 25]
- Percent rescue of splenocyte proliferation @ 100 nM compound concentration: 91%

Structure (SMILES): NC(=O)CC[C@H](NC(=O)N[C@@H](CO)C(=O)O)c1nc([C@@H](N)CO)no1 [Compound 21]
- Percent rescue of splenocyte proliferation @ 100 nM compound concentration: 47%

Structure (SMILES): CC(O)[C@H](NC(=O)N[C@@H](CCC(=O)O)c1nc([C@@H](N)CO)no1)C(=O)O (some centres unmarked) [Compound 19]
- Percent rescue of splenocyte proliferation @ 100 nM compound concentration: 88%

Structure (SMILES): CC(O)[C@@H](NC(=O)N[C@@H](CC(N)=O)c1nc([C@H](N)CO)no1)C(=O)O (some centres unmarked) [Compound 16]
- Percent rescue of splenocyte proliferation @ 100 nM compound concentration: 72%

Structure (SMILES): CC(O)[C@H](NC(=O)N[C@@H](CCC(N)=O)c1nc([C@@H](N)CO)no1)C(=O)O (some centres unmarked) [Compound 20]
- Percent rescue of splenocyte proliferation @ 100 nM compound concentration: 69%

Structure (SMILES): CC(O)[C@@H](NC(=O)N[C@H](CC(N)=O)c1nc([C@H](N)CO)no1)C(=O)O (some centres unmarked) [Compound 15]
- Percent rescue of splenocyte proliferation @ 100 nM compound concentration: 83%

Structure (SMILES): CC(O)[C@H](NC(=O)N[C@@H](CC(N)=O)c1nc([C@@H](N)CO)no1)C(=O)O (some centres unmarked) [Compound 4]
- Percent rescue of splenocyte proliferation @ 100 nM compound concentration: 89%

Structure (SMILES): CC(O)[C@@H](NC(=O)N[C@@H](CC(N)=O)c1nc([C@@H](N)CO)no1)C(=O)O (some centres unmarked) [Compound 11]
- Percent rescue of splenocyte proliferation @ 100 nM compound concentration: 90%

Structure (SMILES): CC(O)[C@H](NC(=O)N[C@@H](CC(N)=O)c1nc([C@H](N)CO)no1)C(=O)O (some centres unmarked) [Compound 12]
- Percent rescue of splenocyte proliferation @ 100 nM compound concentration: 64%

Structure (SMILES): CC(O)[C@H](NC(=O)N[C@H](CC(N)=O)c1nc([C@@H](N)CO)no1)C(=O)O (some centres unmarked) [Compound 13]
- Percent rescue of splenocyte proliferation @ 100 nM compound concentration: 74%

Structure (SMILES): NC(=O)C[C@H](NC(=O)N[C@@H](CO)C(=O)O)c1nc([C@@H](N)CO)no1 [Compound 2]
- Percent rescue of splenocyte proliferation @ 100 nM compound concentration: 50%

Structure (SMILES): CC(O)[C@H](NC(=O)N[C@@H](CC(=O)O)c1nc([C@@H](N)CO)no1)C(=O)O (some centres unmarked) [Compound 24]
- Percent rescue of splenocyte proliferation @ 100 nM compound concentration: 52%

Structure (SMILES): CC(O)[C@H](N)c1noc([C@H](CCC(N)=O)NC(=O)N[C@@H](CO)C(=O)O)n1 (some centres unmarked) [Compound 22]
- Percent rescue of splenocyte proliferation @ 100 nM compound concentration: 55%
